Experiment [1] relates to T1, homomeric GluClβR.
T1 construct: homomeric receptors assembled from the full-length C. elegans GluClβ subunit; expressed in transfected cells; host or cells: CHO-K1 cells, transient transfection, pcDNA3.1
Kind of experiment: Effect of IVM on Glu-elicited currents of homomeric GluClβ receptors in CHO cells (whole-cell patch clamp). Type of experiment: cell-based, C. elegans. The following applies: 100 mM Glu, four cells, mean ± SEM. As to the method:
Figure 9 Effect of IVM on homomeric GluClβ receptors. (A) Representative current traces obtained by the indicated application protocol. Glu (100 mM) was applied for either 350 ms to obtain peak IP0 at −60 mV, or 600 ms to obtain peaks IP1, IP2 and IP3 at +60 mV. Note that the responses at both membrane voltages, −60 and +60 mV, start to desensitize appreciably before the end of Glu application. IVM (2 μM) was applied for 10 seconds. Asterisk indicates a 25-sec-long wash between the second and third Glu applications. (B) Current-voltage (I/V) relations obtained in a different cell than in A upon the application of Glu (100 mM) over a voltage ramp lasting 200 ms. […] Current ratios were extracted from experiments performed as shown in (A). Mean ± SEM of four cells are presented. Paired, two-tailed Student’s t-tests indicate that **0.001 < P < 0.01 and ***P < 0.0002.
Supplementary Information
Trapping of ivermectin by a pentameric ligand-gated ion channel upon open-to-cl ose d i someri zati on N. Degani-Katzav, M. Klein, M. Har-Even, R. Gortler, R. Tobi and Y. Paas*
Supplementary Materials and Methods […]
The electrode resistance was 6-10 MΩ when filled with the pipette solution. […] The currents w ere measured with an Axopatch 200B patch-clamp amplifier (Molecular Devices, Sunnyvale, CA) and a Digidata 1440A interface (Molecular Devices). […]
(In general: In patch-clamp work, channel activity is measured electrically.)

The test system of experiment [2] is homomeric GluClβR. Also noted: method as in PMID 7935817. As to conditions: Xenopus oocytes; read-out: Glu EC50; cited from earlier work.
Experiment [3] concerns chimeric α7-GluClβR. Kind of experiment: IVM added after activation by ACh: kinetics and extent of current decline (whole-cell patch clamp). Type of experiment: cell-based, chick nAChR α7 / C. elegans GluClβ. Here is the method:
Following a further wash (for a minute), the same cell was challenged again with a 5-μM-IVM solution (in 0.01% DMSO; red bar, arrow and trace). Recordings were performed at −60 mV. (B) Time constant of current decline (τd). Values of τd were determined by exponential fits to the declining phase of the currents using Eq. 3. […] Error bars correspond to SEM of N = 6 and N = 5 cells for recordings at −60 mV and −20 mV, respectively. Paired, two-tailed Student’s t-tests indicate that for not significant (“ns”) P > 0.3, and ** 0.001 < P < 0.005.
Figure 8 The inhibition of ACh-elicited currents by addition of IVM is irreversible. […] (B) Representative currents for the same experiment as in A, but with the exception of IVM (0.5 μM) addition after the ACh-elicited current reached to its peak (IP1). Inset, magnification of the indicated segment of the current trace. In both panels A and B, black bars above the current traces indicate ACh or IVM applications. […] Error bars correspond to SEM. Unpaired, two-tailed Student’s t-tests indicate *** P < 0.0001.
The declining phase of the currents was fitted with an exponential time course to give the time constant of current decline by using equation 3, […]
I is the current, IP is the peak of the current, IS is the steady state current, t is the time, and τ is the time constant of current decline. […]
Supplementary Materials and Methods
The structural mo del of the chi meric α7-GluClβR was built based on th e methodologies published previously1,2, and the sequence of the chimeric subunit is presented in […]
DNA construct and preparation of cells for electrophysiological experiments The cDNA encoding the α7-GluClβ chimeric subunit was generated as described previously3, and was cloned into a pcDNA3.1 vector.
Chinese hamster ovary cells (CHO-K1, ATCC via Biological Industries Israel, Beit Haemek Ltd.) were cultured as performed previously2 in Dulbecco 's Modified E agle Med iu m (DMEM) containing 10% fetal calf serum (Biological Industries Israel Beit Haemek Ltd.), 2 mM glutamax, 100 Units/ml penicillin G and 100 μg/ml streptomycin, and grown in 5% CO2 at 37°C under 90-95% hu midity . CHO cells were seeded on glass coverslips (13-mm diameter) placed in a 24-multiwell plate. For the expression of the α7-GluClβR, cells were transiently transfected with the pcDNA3.1 plasmid containing the receptor’s ORF (200-600 ng per well) using transit-LT1 transfection reagent (Mirus, USA), according to the manufacturer’s protocol. pIRES-CD8 plas mid (200 ng per well) was also added to enable visualization of the ex pressing cells by beads coated with anti-CD8 antibodies (Invitrogen). For the expression of GluClβ ho mo mers, we used the pcDNA3.1 plas mid containing the GluClβ-subunit ORF (600-1000 ng per well), pIRES-CD8 plas mid (200 ng per well) and th e X-tremeGENE HP DNA Transfection Reagent (Roche Life Science). Recordings were performed 48-72 hours following transfection.
Whole-cell patch clamp recordings
Recordings were performed in the aforementioned CHO cells, as previously described1,2. Whole-cell patch clamp experiments were performed with normal external solution (NES) contained (in millimolar): 140 NaCl, 2.8 KCl, 2 CaCl2, 2 MgCl2, 10 glucose and 10 HEPES, adjusted to pH 7.35 with NaOH (310 mOsM). The pipette solution contained […]
(in millimolar): 130 KCl, 4 MgCl2, 4 Na2ATP, 1 EGTA and 10 HEPES, adjusted to pH 7.35 with KOH (290 mOsM). The osmolarity of these solutions was maintained by adding sucrose.
The electrode resistance was 6-10 MΩ when filled with the pipette solution. External solutions were applied onto the cell by using the VC-77SP fast-step system (Warner Instruments, CT, USA) combined with N2 pressure of 3-4 psi to produce laminar flow of the external solution onto the patched cell. All measurements were performed at 25 °C. The currents w ere measured with an Axopatch 200B patch-clamp amplifier (Molecular Devices, Sunnyvale, CA) and a Digidata 1440A interface (Molecular Devices). […]

Experiment [4] has as its target chimeric α7-GluClβR (Gallus gallus / Caenorhabditis elegans, UniProt P22770, M226I/T225I). As to the kind of experiment: ACh dose-response, whole-cell patch clamp in CHO cells expressing the chimeric receptor. Type of experiment: cell-based, chick nAChR α7 / C. elegans GluClβ. As to conditions: −60 mV.

Each structure is given as a SMILES string.

Sequence of chimeric α7-GluClβR (Gallus gallus / Caenorhabditis elegans, UniProt P22770, M226I/T225I) (P22770 24-230 T225I/M226I): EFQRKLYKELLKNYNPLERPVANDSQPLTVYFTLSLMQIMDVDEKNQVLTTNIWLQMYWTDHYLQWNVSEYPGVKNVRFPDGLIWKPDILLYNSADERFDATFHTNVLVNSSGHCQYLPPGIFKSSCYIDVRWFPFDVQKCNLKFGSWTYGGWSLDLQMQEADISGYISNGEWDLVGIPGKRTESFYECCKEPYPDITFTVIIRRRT
Sequence of chimeric α7-GluClβR (Gallus gallus / Caenorhabditis elegans, UniProt P22770, M226I/T225I) (Q17328 245-434, further chain): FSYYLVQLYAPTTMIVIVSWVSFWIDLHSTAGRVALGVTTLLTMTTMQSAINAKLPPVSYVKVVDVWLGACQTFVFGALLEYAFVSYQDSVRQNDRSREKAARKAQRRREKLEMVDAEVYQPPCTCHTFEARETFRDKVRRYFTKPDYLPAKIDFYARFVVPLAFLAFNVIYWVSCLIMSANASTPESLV

`N[C@@H](CCC(=O)O)C(=O)O` [Glu, glutamate]: the “I+60mV/I−60mV of Glu-elicited responses” value in the experiment on homomeric GluClβR [1] is reported as 2.8 ± 0.2. Moreover, in the experiment with homomeric GluClβR [2], the EC50 was 380 µM.

As to `CC(=O)OCC[N+](C)(C)C` [ACh, acetylcholine], the “current remaining at end of initial application, percent IS/IP1” value with chimeric α7-GluClβR [3] (30 μM ACh alone for 9.6 sec, N = 10) was determined as 35 ± 4%. In the experiment with chimeric α7-GluClβR [3] (30 μM ACh alone, 9.6 sec, N = 10), the “τd1, time constant of current decline” value came to 4268 ± 224 ms. Also, the “current remaining at end of application, percent of the peak amplitude” value in the experiment on chimeric α7-GluClβR [3] (350 μM ACh alone for 5.5 sec, N = 5) is recorded as 31 ± 8.6%. The “time between the start of application and the onset of effect” value in the experiment on chimeric α7-GluClβR [3] (six experiments as in Fig. 5A, 350 μM ACh, 5 μM IVM) is recorded as 67 ± 7 milliseconds. Further, on chimeric α7-GluClβR [4], the “Hill coefficient (ACh dose-response)” value is listed as 2.55 ± 0.3.

What is called EC50 is the concentration needed to bring the measured effect to its halfway point.

Values taken from publication PMC5317004 (Scientific Reports, 2017).
